Reference: patent US9750719B2, “Tetrazole compounds as calcium channel blockers” (CONVERGENCE PHARMACEUTICALS LIMITED, priority 2010, dated 2017)
Structures can show the parent of a compound that is named as a salt.

Target: T1, human Cav2.2 α (α1B) subunit, along with the human β3 and α2δ1 auxiliary subunits (Homo sapiens, UniProt Q00975)
T1 construct: expressed in transfected cells
Experiment: hCav2.2 assay, IonWorks planar array electrophysiology in stable HEK293 cell line
Format: cell-based
Settings: inhibition by 50% of current elicited by the 1st depolarising pulse; HEK293 cells; read-out: tonic pIC50 (converted)
Protocol: Compounds as defined in the first or second aspect may be tested for in vitro biological activity in the hCav2.2 assay in accordance with the following studies:
Stable cell lines expressing the human Cav2.2 α (α1B) subunit, along with the human β3 and α2δ1 auxiliary subunits were created following sequential transfection and selection of human embryonic kidney (HEK293) cells. HEK293 cells were cultured in Dulbecco's modified Eagles media/F12 media (Invitrogen, Cat #041-95750V) containing 10% fetal bovine serum, with added L-glutamine (2 mM; Invitrogen, Cat #25030-024) and non-essential amino acids (5%; Invitrogen, Cat #11140-035). Initially HEK293 cells were transfected with two plasmid vectors for expression of the hCav2.2 α subunit (pCIN5-hCav2.2 which carries a neomycin resistance marker) and the hCav β3 subunit (pCIH-hCav β3 which carries a hygromycin resistance marker). Clonal cell lines were isolated following selection in media supplemented with 0.4 mg ml^−1 Geneticin G418 (Invitrogen, Cat #10131-027) and 0.1 mg ml^−1 hygromycin (Invitrogen, Cat #10687-010). These clonal cell lines were assessed for Cav2.2 α/β3-mediated current expression using the IonWorks planar array electrophysiology technology (described below). A clonal line was identified that gave a reasonable level of functional Cav2.2 α/β3 current expression. This cell line was transfected with a plasmid vector for expression of the human α2δ1 subunit (pCIP-α2δ1 which carries a puromycin resistance marker) and clonal cell lines isolated following selection in media containing 0.62 μg ml^−1 puromycin (Sigma, Cat #P-7255), in addition to 0.4 mg ml^−1 Geneticin G418 and 0.1 mg ml^−1 hygromycin. Several cell lines were identified that gave robust levels of Cav2.2 α/β3/α2δ1-mediated current expression and one of these was selected for compound profiling. Expression of all three subunits within this cell line was continuously maintained by the inclusion of G418 (0.4 mg ml^−1), hygromycin (0.1 mg ml^−1) and puromycin (0.62 μg ml^−1). Cells were maintained at 37° C. in a humidified environment containing 5% CO2 in air. Cells were liberated from the T175 culture flasks for passage and harvesting using TrpLE (Invitrogen, Cat #12604-013).
Cells were grown to 30-60% confluence in T175 flasks and maintained at 30° C. for 24 hrs prior to recording. Cells were lifted by removing the growth media, washing with Ca^2+ free PBS (Invitrogen, Cat #14190-094) and incubating with 3 ml of warmed (37° C.) TrpLE (Invitrogen, Cat #12604-013) for 6 minutes. Lifted cells were suspended in 10 ml of extracellular buffer. Cell suspension was then placed into a 15 ml tube and centrifuged for 2 minutes at 700 rpm. After centrifugation, the supernatant was removed and the cell pellet was resuspended in 4.5 ml of extracellular solution.
Currents were recorded at room temperature (21-23° C.) using the IonWorks planar array electrophysiology technology (Molecular Devices Corp.). Stimulation protocols and data acquisition were carried out using a microcomputer (Dell Pentium 4). In order to determine planar electrode hole resistances (Rp), a 10 mV, 160 ms potential difference was applied across each hole. These measurements were performed before cell addition. After cell addition a seal test was performed prior to antibiotic (amphotericin) circulation to achieve intracellular access. Leak subtraction was conducted in all experiments by applying a 160 ms hyperpolarizing (10 mV) prepulse 200 ms before the test pulses to measure leak conductance. Test pulses stepping from the holding potential (VH) of −90 mV to +10 mV were applied for 20 ms and repeated 10 times at a frequency of 10 Hz. In all experiments, the test pulse protocol was performed in the absence (pre-read) and presence (post-read) of a compound. Pre- and post-reads were separated by a compound addition followed by a 3-3.5 min incubation. […]

T1 sequence (Q00975 whole entry): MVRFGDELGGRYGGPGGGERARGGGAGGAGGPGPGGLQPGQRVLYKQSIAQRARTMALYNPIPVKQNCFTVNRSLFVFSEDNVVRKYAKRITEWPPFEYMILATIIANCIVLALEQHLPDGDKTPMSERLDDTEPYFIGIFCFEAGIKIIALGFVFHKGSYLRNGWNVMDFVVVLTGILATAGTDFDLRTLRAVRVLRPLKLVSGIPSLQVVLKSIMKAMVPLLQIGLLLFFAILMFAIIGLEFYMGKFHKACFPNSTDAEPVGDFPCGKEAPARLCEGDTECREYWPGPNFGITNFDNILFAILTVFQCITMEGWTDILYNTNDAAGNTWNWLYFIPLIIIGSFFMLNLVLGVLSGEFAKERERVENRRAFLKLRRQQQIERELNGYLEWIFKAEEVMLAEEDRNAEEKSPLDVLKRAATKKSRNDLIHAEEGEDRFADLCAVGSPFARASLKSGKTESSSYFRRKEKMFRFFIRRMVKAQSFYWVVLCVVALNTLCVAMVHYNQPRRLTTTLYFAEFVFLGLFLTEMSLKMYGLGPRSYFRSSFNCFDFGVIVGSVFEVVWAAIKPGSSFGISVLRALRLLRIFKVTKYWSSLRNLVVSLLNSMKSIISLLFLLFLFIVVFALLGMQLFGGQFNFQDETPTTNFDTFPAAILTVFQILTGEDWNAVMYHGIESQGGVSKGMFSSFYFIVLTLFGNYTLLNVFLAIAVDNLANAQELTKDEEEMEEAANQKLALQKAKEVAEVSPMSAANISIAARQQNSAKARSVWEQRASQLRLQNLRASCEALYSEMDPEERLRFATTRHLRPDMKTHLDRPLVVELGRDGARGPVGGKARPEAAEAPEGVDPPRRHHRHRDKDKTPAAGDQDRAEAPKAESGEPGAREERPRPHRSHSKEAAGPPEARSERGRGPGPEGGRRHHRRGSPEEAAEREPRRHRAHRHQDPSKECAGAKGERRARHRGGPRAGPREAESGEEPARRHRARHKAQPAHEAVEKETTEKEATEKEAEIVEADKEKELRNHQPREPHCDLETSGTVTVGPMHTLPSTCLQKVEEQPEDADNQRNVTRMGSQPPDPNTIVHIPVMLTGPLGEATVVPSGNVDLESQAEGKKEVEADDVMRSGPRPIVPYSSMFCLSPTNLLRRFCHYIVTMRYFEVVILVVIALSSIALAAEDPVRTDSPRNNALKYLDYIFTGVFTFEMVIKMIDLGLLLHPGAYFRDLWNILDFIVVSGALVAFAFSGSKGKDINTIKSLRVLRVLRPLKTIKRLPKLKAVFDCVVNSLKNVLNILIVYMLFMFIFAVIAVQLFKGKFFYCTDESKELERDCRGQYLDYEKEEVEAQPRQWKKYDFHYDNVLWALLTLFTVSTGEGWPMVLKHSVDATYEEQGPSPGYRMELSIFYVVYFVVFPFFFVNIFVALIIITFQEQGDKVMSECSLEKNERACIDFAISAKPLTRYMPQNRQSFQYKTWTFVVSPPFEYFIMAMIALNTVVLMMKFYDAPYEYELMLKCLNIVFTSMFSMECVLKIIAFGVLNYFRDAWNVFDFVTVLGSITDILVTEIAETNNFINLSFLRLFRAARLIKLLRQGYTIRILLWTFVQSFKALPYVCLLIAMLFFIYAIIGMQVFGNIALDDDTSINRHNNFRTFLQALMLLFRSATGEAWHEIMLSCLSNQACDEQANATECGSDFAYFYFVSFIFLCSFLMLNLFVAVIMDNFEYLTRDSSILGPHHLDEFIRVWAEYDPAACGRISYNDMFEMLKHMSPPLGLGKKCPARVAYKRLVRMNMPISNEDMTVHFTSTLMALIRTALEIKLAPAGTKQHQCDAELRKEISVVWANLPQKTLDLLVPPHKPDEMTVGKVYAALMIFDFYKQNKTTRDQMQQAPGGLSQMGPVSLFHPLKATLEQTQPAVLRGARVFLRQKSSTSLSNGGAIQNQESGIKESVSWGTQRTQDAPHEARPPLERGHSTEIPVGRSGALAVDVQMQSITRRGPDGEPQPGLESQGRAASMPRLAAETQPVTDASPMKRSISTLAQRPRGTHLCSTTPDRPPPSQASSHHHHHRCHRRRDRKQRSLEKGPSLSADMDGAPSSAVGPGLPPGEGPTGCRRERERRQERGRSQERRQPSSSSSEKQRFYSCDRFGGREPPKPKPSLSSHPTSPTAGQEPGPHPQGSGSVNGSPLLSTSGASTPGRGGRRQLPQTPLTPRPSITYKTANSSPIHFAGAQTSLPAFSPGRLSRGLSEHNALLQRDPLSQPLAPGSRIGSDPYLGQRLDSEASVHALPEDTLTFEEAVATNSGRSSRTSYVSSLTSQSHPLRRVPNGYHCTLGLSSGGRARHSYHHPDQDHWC
T1 sequence (P54284 whole entry partner): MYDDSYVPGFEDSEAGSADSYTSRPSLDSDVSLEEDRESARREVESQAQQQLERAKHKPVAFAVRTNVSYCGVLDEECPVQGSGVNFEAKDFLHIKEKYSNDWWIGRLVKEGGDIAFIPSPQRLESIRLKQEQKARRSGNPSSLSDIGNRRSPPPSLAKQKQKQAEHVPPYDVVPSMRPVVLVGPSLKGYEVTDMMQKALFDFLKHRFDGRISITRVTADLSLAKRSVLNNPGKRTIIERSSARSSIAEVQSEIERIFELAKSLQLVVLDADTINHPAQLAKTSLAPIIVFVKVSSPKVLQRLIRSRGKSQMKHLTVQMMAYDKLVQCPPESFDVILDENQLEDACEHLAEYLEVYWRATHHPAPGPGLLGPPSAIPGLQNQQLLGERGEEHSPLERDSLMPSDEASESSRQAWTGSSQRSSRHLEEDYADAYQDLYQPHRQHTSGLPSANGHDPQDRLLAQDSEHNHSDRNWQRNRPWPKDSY
T1 sequence (P54289 25-946 partner limits assumed): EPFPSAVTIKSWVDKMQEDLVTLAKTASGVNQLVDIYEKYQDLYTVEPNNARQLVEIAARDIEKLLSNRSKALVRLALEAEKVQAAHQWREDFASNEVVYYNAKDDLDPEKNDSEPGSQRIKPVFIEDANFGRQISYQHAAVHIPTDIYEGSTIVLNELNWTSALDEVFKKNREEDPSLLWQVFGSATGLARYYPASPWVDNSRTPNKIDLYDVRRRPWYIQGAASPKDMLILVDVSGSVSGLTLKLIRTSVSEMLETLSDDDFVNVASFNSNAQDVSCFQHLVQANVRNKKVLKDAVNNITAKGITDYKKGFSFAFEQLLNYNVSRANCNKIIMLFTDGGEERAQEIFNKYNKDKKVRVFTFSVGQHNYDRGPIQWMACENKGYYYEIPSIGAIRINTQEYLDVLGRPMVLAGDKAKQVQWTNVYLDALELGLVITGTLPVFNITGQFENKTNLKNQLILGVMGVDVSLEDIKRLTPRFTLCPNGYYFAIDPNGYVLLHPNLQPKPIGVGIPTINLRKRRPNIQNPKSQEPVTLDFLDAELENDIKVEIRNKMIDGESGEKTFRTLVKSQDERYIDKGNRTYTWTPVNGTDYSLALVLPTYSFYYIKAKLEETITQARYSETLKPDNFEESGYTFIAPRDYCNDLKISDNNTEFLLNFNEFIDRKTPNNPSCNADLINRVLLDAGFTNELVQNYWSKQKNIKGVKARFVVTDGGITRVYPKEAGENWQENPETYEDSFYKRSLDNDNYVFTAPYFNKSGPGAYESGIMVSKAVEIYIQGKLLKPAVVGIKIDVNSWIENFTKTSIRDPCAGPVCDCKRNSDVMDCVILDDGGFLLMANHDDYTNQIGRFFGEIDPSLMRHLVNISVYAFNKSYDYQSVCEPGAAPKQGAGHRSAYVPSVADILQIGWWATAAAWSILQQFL
T1 sequence (P54289 947-1103 partner limits assumed): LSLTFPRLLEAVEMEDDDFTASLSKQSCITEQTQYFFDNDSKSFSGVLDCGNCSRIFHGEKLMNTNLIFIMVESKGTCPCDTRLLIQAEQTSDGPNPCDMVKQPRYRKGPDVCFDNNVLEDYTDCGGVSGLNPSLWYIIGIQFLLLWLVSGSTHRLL

Compound	IC50 [µM]
C[C@@H]1CN(Cc2nnnn2-c2cccc(C(F)(F)F)c2)C[C@H](C)O1 [Compound 3, (cis)-2,6-Dimethyl-4-({1-[3-(trifluoromethyl)phenyl]-1H-tetrazol-5-yl}methyl)morpholine]	≤ 31.6
FC(F)(F)c1ccc(-n2nnnc2CCN2CCOCC2)cc1 [Compound 9, 4-(2-{1-[4-(Trifluoromethyl)phenyl]-1H-tetrazol-5-yl}ethyl)morpholine hydrochloride]	≤ 31.6
C[C@@H]1CN(Cc2nnnn2-c2ccc(Cl)cc2)C[C@H](C)O1 [Compound 13, (cis)-4-{[1-(4-Chlorophenyl)-1H-tetrazol-5-yl]methyl}-2,6-dimethylmorpholine]	≤ 31.6
FC(F)(F)c1cccc(-n2nnnc2CN2CCOCC2)c1 [Compound 19, 4-({1-[3-(Trifluoromethyl)phenyl]-1H-tetrazol-5-yl}methyl)morpholine]	≤ 31.6
Clc1ccc(-n2nnnc2CN2CCOCC2)cc1Cl [Compound 21, 4-{[1-(3,4-Dichlorophenyl)-1H-tetrazol-5-yl]methyl}morpholine]	≤ 10
CCCS(=O)(=O)N1CCN(Cc2nnnn2-c2ccc(Cl)cc2)CC1 [Compound 23, 1-{[1-(4-Chlorophenyl)-1H-tetrazol-5-yl]methyl}-4-(propylsulfonyl)piperazine]	≤ 31.6
N#CC1CCN(Cc2nnnn2-c2cccc(C(F)(F)F)c2)C1 (stereo not drawn) [Compound 24, 1-({1-[3-(Trifluoromethyl)phenyl]-1H-tetrazol-5-yl}methyl)-3-pyrrolidinecarbonitrile hydrochloride]	≤ 31.6
C[C@@H]1COCCN1Cc1nnnn1-c1cccc(C(F)(F)F)c1 [Compound 25, (3R)-3-Methyl-4-({1-[3-(trifluoromethyl)phenyl]-1H-tetrazol-5-yl}methyl)morpholine hydrochloride]	≤ 3.16
C[C@@H]1COCCN1Cc1nnnn1-c1ccc(C(F)(F)F)cc1 [Compound 28, (3R)-3-Methyl-4-({1-[4-(trifluoromethyl)phenyl]-1H-tetrazol-5-yl}methyl)morpholine hydrochloride]	≤ 3.16
CC1(C)COCCN1Cc1nnnn1-c1cccc(C(F)(F)F)c1 [Compound 29, 3,3-Dimethyl-4-({1-[3-(trifluoromethyl)phenyl]-1H-tetrazol-5-yl}methyl)morpholine]	≤ 10
C[C@@H]1CN(Cc2nnnn2-c2ccc(C#N)c(C(F)(F)F)c2)C[C@H](C)O1 [Compound 30, 4-(5-{[cis-2,6-Dimethyl-4-morpholinyl]methyl}-1 H-tetrazol-1-yl)-2-(trifluoromethyl)benzonitrile]	≤ 10
CC1C(=O)N(C)CCN1Cc1nnnn1-c1cccc(C(F)(F)F)c1 (stereo not drawn) [Compound 33, 1,3-Dimethyl-4-({1-[3-(trifluoromethyl)phenyl]-1H-tetrazol-5-yl}methyl)-2-piperazinone]	63.1
N#Cc1ccc(-n2nnnc2CN2CCOCC2)cc1C(F)(F)F [Compound 34, 4-[5-(4-Morpholinylmethyl)-1H-tetrazol-1-yl]-2-(trifluoromethyl)benzonitrile hydrochloride]	≤ 31.6
C[C@@H]1COCCN1Cc1nnnn1-c1ccc(C#N)c(C(F)(F)F)c1 [Compound 41, 4-(5-{[(3R)-3-Methyl-4-morpholinyl]methyl}-1H-tetrazol-1-yl)-2-(trifluoromethyl)benzonitrile]	≤ 3.16

The next lines start with the values.

IC50 [µM]	Compound
≤ 10	C[C@H]1COCCN1Cc1nnnn1-c1ccc(C(F)(F)F)cc1 [Compound 39, (3S)-3-Methyl-4-({1-[4-(trifluoromethyl)phenyl]-1H-tetrazol-5-yl}methyl)morpholine hydrochloride]
≤ 31.6	C[C@@H]1COCCN1Cc1nnnn1-c1ccc(C(F)(F)F)cn1 [Compound 42, (3R)-3-Methyl-4-({1-[5-(trifluoromethyl)-2-pyridinyl]-1H-tetrazol-5-yl}methyl)morpholine]
≤ 31.6	CN1CCN(Cc2nnnn2-c2cccc(C(F)(F)F)c2)CC1(C)C [Compound 45, 1,2,2-Trimethyl-4-({1-[3-(trifluoromethyl)phenyl]-1H-tetrazol-5-yl}methyl)piperazine hydrochloride]
≤ 10	CCS(=O)(=O)N1CCN(Cc2nnnn2-c2ccc(C(F)(F)F)cc2)CC1 [Compound 47, 1-(Ethylsulfonyl)-4-({1-[4-(trifluoromethyl)phenyl]-1H-tetrazol-5-yl}methyl)piperazine]
≤ 3.16	CCS(=O)(=O)N1CCN(Cc2nnnn2-c2cccc(C(F)(F)F)c2)CC1 [Compound 48, 1-(Ethylsulfonyl)-4-({1-[3-(trifluoromethyl)phenyl]-1H-tetrazol-5-yl}methyl)piperazine]
≤ 31.6	CCN1CCN(Cc2nnnn2-c2ccc(C(F)(F)F)cc2)[C@H](C)C1=O [Compound 52, (3R)-1-Ethyl-3-methyl-4-({1-[4-(trifluoromethyl)phenyl]-1H-tetrazol-5-yl}methyl)-2-piperazinone]
≤ 31.6	C[C@@H]1COCCN1Cc1nnnn1-c1ccc(OC(F)F)cc1 [Compound 54, (3R)-4-[(1-{4-[(Difluoromethyl)oxy]phenyl}-1H-tetrazol-5-yl)methyl]-3-methylmorpholine hydrochloride]
≤ 31.6	C[C@@H]1CN(Cc2nnnn2-c2ccc(Br)cc2Cl)C[C@H](C)O1 [Compound 57, cis-4-{[1-(4-Bromo-2-chlorophenyl)-1H-tetrazol-5-yl]methyl}-2,6-dimethylmorpholine hydrochloride]
≤ 31.6	C[C@@H]1COC[C@H](C)N1Cc1nnnn1-c1cccc(C(F)(F)F)c1 [Compound 64, (cis)-3,5-dimethyl-4-({1-[3-(Trifluoromethyl)phenyl]-1H-tetrazol-5-yl}methyl)morpholine hydrochloride]
≤ 31.6	FC(F)(F)c1cccc(-n2nnnc2CNC2CCCCC2)c1 [Compound 65, N-({1-[3-(Trifluoromethyl)phenyl]-1H-tetrazol-5-yl}methyl)cyclohexanamine hydrochloride]
≤ 31.6	FC(F)(F)c1ccc(-n2nnnc2CN2CCN3CCCC3C2)cc1 (stereo not drawn) [Compound 70, 2-({1-[4-(Trifluoromethyl)phenyl]-1H-tetrazol-5-yl}methyl)octahydropyrrolo[1,2-a]pyrazine di-hydrochloride]
≤ 3.16	CS(=O)(=O)N1CCN(Cc2nnnn2-c2ccc(C(F)(F)F)cc2)CC1 [Compound 71, 1-(Methylsulfonyl)-4-({1-[4-(trifluoromethyl)phenyl]-1H-tetrazol-5-yl}methyl)piperazine]
≤ 10	CS(=O)(=O)N1CCN(Cc2nnnn2-c2cccc(C(F)(F)F)c2)CC1 [Compound 72, 1-(Methylsulfonyl)-4-({1-[3-(trifluoromethyl)phenyl]-1H-tetrazol-5-yl}methyl)piperazine]
≤ 31.6	N#Cc1ccc(-n2nnnc2CN2CCC[C@@H]2C(F)(F)F)cc1 [Compound 73, 4-(5-{[(2R)-2-(Trifluoromethyl)-1-pyrrolidinyl]methyl}-1H-tetrazol-1-yl)benzonitrile]
≤ 10	O=C1CCC2CN(Cc3nnnn3-c3ccc(C(F)(F)F)cc3)CCN12 (stereo not drawn) [Compound 74, 2-({1-[4-(Trifluoromethyl)phenyl]-1H-tetrazol-5-yl}methyl)hexahydropyrrolo[1,2-a]pyrazin-6(2H)-one]
≤ 31.6	FCC12CCCN1CCN(Cc1nnnn1-c1ccc(C(F)(F)F)cc1)C2 (stereo not drawn) [Compound 77, 8a-(Fluoromethyl)-2-({1-[4-(trifluoromethyl)phenyl]-1H-tetrazol-5-yl}methyl)octahydropyrrolo[1,2-a]pyrazine]
